Experimental data as given in patent US20040248992A1, “Method and composition for inhibiting arteriosclerosis” (KANEKA CORPORATION, priority 2000, published 2004).

Key:
[1] = Plasma level of the reduced coenzyme Q10 in hamsters on high-fat diet (HPLC); format: in vivo
Procedure: Hamsters were fed on a high-fat diet containing 1.5% of cholesterol for one week and, then, a 1% (w/v) solution of either the oxidized or the reduced coenzyme Q10 in olive oil was administered orally for 4 consecutive days. After overnight fasting, the plasma was collected and the reduced coenzyme Q10 in the plasma was assayed by HPLC.

[2] = tested on: plasma low-density lipoprotein (LDL); assay: Antioxidant activity of plasma LDL (lag time of copper-induced conjugated diene formation) in hamsters on high-fat diet; format: in vivo; details: 1% (w/v) solution in olive oil plus pravastatin 10 mg/kg orally for 4 consecutive days, LDL 40 μg protein/mL, copper ion 1 μM, 234 nm, n = 3
Procedure: Hamsters were fed on a high-fat diet containing 1.5% of cholesterol for 1 week and, then, dosed orally with a 1% (w/v) solution of either the oxidized or the reduced coenzyme Q10 in olive oil and 10 mg of pravastatin per kg body weight for 4 consecutive days. After overnight fasting, the plasma was collected, the plasma LDL was separated by density-gradient centrifugation method, and as a marker of LDL antioxidant activity, the lag time was measured. The lag time is defined herein as the value found by adding a copper ion (1 μM) to LDL (40 μg protein/mL) and monitoring at 234 nm the time course of conjugated diene structure of oxidized fat/fatty acid resulting from oxidation to determine the time interval until a sharp increase had begun in the conjugated diene concentration.

Row | Gain in reduced coenzyme Q10 in plasma ([1]; hamster, in vivo, po, 4 days) [ng/mL] | Gain in reduced coenzyme Q10 in plasma, relative to oxidized coenzyme Q10 group (100%) ([1]; hamster, in vivo, po, 4 days) [%] | SMILES | Gain in reduced coenzyme Q10 in plasma ([1]; hamsters on high-fat diet (1.5% cholesterol, 1 week), 1% (w/v) solution in olive oil orally for 4 consecutive days, plasma after overnight fasting, n = 3) [ng/mL] | Gain in reduced coenzyme Q10 in plasma, relative to oxidized coenzyme Q10 group (100%) ([1]; hamsters on high-fat diet, 1% (w/v) solution in olive oil orally for 4 consecutive days, n = 3) [%] | Lag time (LDL antioxidant activity) [2] [min]
1 | – | – | COc1c(O)c(C)c(C/C=C(\C)CC/C=C(\C)CC/C=C(\C)CC/C=C(\C)CC/C=C(\C)CC/C=C(\C)CC/C=C(\C)CC/C=C(\C)CC/C=C(\C)CCC=C(C)C)c(O)c1OC [reduced coenzyme Q10] | 14.4 | 143 | 44 ± 9
2 | 10.1 | 100 | COC1=C(OC)C(=O)C(C/C=C(\C)CC/C=C(\C)CC/C=C(\C)CC/C=C(\C)CC/C=C(\C)CC/C=C(\C)CC/C=C(\C)CC/C=C(\C)CC/C=C(\C)CCC=C(C)C)=C(C)C1=O [oxidized coenzyme Q10] | – | – | 25 ± 8
